Assay results: US20230190778A1, “COMPOSITION COMPRISING GLUCOSE OLIGOSACCHARIDE AND PROCESS FOR MAKING THE SAME AND USE THEREOF” (CARGILL, INCORPORATED, priority 2020, published 2023)

Tests used:
[1] = tested on: chicken macrophage-like cell line HD11; experiment: Nitric oxide (NO)-production assay (Griess); assay type: cell-based; conditions: HD11 cells
Description: A nitric oxide production assay using chicken macrophage-like cell line HD11, as also described by Biggelaar et al., Vaccines 2020, 8(2), 332, was carried out to compare immune responses in terms of NO production of the glucose-oligosaccharide according to Example 1 and a prior art glucose-oligosaccharide fibre according to Example 2.
To obtain a standard NO calibration curve, the Griess assay was used as described by Biggelaar et al.
On day 1 HD11 cell were seeded, day 2 compounds were added at different concentrations i.e. at 10 ppm, 50 ppm and 100 ppm. […] Compounds were tested in triplicate per NO assay i.e. in total 3 series of NO assays were performed per compound per concentration.
(NB: Negative output implies zero NO production. Negative values arise due to the calculation based on the standard NO calibration curve. Negative output can be seen as 0 NO production.)

[2] = tested on: developing embryos (unhatched chicks); experiment: In ovo trial (hatchability / safety); assay type: in vivo, chicken; conditions: 1 mL injected in ovo at 17 days of incubation; at up to just 0.006 mg; FIG. 4
Description: The trials were thus carried out to indicate safety of the compound according to the invention in animals In this case, a comparison was made with Example 3, a commercially available conjugated linoleic acid (CLA). It is known that CLA may modulate the immune system.
480 eggs we incubated under standard conditions. They were divided unto 8 groups of 10 eggs replicated 6 times. At 17 days of incubation eggs were injected with 1 mL of the respective solution of Example 1 and Example 3 at increasing concentrations. The intention was to deliver into the amniotic fluid to be orally consumed and digested by the developing embryos according to the method described by (Uni et al., 2005, Poult Sci 84:764-770). At day of hatch, hatched chicks as well as remaining non-hatched eggs were counted and % hatchability was calculated to indicate safety of injected materials by not causing mortality.

| Substance | NO production (positive control) [1] | hatchability [2] |
| --- | --- | --- |
| Lipopolysaccharide [LPS] | high NO production | – |
| conjugated linoleic acid [Example 3] | – | Not all of the chicks hatched |
